Usually stoichiometry N stands for the number of molecules, sites or subunits per partner or assembly.

In one data set the target is T1, ClpP1P2 (Streptomyces hawaiiensis, UniProt A0A6G5RDH7).
T1 construct: gene clpP; untagged full-length ClpP1 mixed with C-terminally His6-tagged full-length ClpP2, expressed in E. coli SG1146a; heterotetradecamer of two homoheptameric rings; with ATP-dependent Clp protease proteolytic subunit 2
The data set can be described thus: peptidase activation assay, Suc-LY-AMC. Type of data set: biochemical. Particulars: activator binding via ClpP1; 10 μM ADEP1, 4 μM total ClpP, pH 7.5, 30°C.

The next data set concerns the target T2, ClpC1 (Streptomyces hawaiiensis, UniProt A0A6G5RIJ6).
T2 construct: gene CEB94_23085
Particulars: 100 nM ATP, beta-casein, 30°C; ClpC1 alone and with ClpP1P2; unaffected by ADEP1.

The next data set addresses T3, ClpP1 (Streptomyces hawaiiensis, UniProt A0A6G5RDH7).
T3 construct: gene clpP; full-length unprocessed, untagged, expressed in E. coli SG1146a (clpP deletion), anion exchange; ADEP-induced processing between G24 and P25
T3 sequence (A0A6G5RDH7 1-219): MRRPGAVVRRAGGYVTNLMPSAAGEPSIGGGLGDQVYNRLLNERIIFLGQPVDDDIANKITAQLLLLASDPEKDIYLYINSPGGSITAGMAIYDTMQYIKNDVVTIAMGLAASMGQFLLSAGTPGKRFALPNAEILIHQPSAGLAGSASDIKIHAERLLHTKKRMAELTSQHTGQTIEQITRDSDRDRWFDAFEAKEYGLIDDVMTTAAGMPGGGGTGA
Put plainly: fluorogenic peptidase assay. The class given is biochemical. Particulars: with ADEP1 as activator; 100 μM substrate, pH 7.5, 30°C.

Data set [1] concerns the molecule itself. The data set can be described thus: native gel or EMSA; native PAGE without cross-linker, with ADEP1: ClpP1 and ClpP2 (10 μM each) with 60 μM or 25 μM ADEP1 (ClpP:ADEP1 1:3 or 1:1.25), 3 h at 30°C; immunoblot with anti-ClpP1 or anti-6His.
Data set [2] deals with the molecule itself. The data set can be described thus: SEC; Superdex 200 Increase 10/300 GL; 80 μM protein, DMSO (no ADEP1), 30 min at 30°C; buffer GF (50 mM HEPES-KOH, 150 mM KCl, 20 mM MgCl2, 10% glycerol, 1 mM DTT, pH 7.5). Background: Size exclusion chromatography separates by hydrodynamic size, large species first.

Starred links: 1 amine or outer side, 2 acyl side, 3 side chain; linkers in the order of their positions; H or OH if unused. Positions of bridges follow the written chain, without caps; N, C: chain ends. Non-standard residues stand in square brackets, D forms with d. Residues, ends and D or L forms follow the SMILES beside them. *: point of attachment. Octatrienoyl(2E,4E,6E) = C/C=C/C=C/C=C/C(=O)*; Pro(4R-Me) = C[C@H]1CN[C@H](C(=O)O)C1; AMC = Cc1cc(=O)oc2cc(N*)ccc12; Suc = O=C(CCC(=O)[*:2])[*:1]; NMeA = CN[C@@H](C)C(=O)O

T2 sequence (A0A6G5RIJ6 1-841): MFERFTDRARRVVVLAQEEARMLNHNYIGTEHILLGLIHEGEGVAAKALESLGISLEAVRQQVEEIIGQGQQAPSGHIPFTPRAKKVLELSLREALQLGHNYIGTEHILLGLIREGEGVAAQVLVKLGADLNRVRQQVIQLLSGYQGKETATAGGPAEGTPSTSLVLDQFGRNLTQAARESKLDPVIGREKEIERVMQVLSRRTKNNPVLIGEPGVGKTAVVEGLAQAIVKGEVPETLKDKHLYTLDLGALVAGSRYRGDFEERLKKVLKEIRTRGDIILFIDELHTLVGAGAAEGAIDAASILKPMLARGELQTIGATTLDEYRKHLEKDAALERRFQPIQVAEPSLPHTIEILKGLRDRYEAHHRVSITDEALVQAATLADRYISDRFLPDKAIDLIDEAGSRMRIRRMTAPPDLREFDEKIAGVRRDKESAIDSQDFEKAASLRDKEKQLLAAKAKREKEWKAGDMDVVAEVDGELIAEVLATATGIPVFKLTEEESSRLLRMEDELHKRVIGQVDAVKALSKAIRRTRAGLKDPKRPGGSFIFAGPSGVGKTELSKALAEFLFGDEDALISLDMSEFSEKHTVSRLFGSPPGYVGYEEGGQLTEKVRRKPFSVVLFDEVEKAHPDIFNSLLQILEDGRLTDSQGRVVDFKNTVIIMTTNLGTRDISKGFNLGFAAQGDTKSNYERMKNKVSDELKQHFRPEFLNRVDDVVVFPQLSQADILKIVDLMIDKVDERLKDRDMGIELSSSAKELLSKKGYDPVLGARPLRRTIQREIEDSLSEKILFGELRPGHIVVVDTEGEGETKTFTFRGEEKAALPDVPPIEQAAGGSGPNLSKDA

`C/C=C/C=C/C=C/C(=O)N[C@@H](Cc1ccccc1)C(=O)N[C@H]1COC(=O)[C@@H]2C[C@@H](C)CN2C(=O)[C@H](C)NC(=O)[C@H](C)N(C)C(=O)[C@@H]2CCCN2C1=O` [ADEP1] ({Octatrienoyl(2E,4E,6E)}-FSP[NMeA]A[Pro(4R-Me)]; ester 2-C): on ClpP1P2, the “peptidase activation assay, Suc-LY-AMC” value is on record as “ADEP1 clearly induced the hydrolysis of Suc-LY-AMC by either ClpP1 alone or by the mixed complex”.
Take `Nc1ncnc2c1ncn2[C@@H]1O[C@H](COP(=O)(O)OP(=O)(O)OP(=O)(O)O)[C@@H](O)[C@H]1O` [ATP]: the “ADP-Glo ATP turnover assay” value at ClpC1 was “directly measured the turnover of ATP to ADP by ClpC1 in casein degradation assays”.
`Cc1cc(=O)oc2cc(NC(=O)[C@H](Cc3ccc(O)cc3)NC(=O)[C@H](CC(C)C)NC(=O)CCC(=O)O)ccc12` [Suc-LY-AMC] (Suc-Leu-Tyr-{AMC}): on ClpP1, the fluorogenic peptidase assay entry was “ADEP1 clearly induced the hydrolysis of Suc-LY-AMC by either ClpP1 alone”.

B1: ClpP2 of Streptomyces hawaiiensis NRRL 15010, C-terminally His6-tagged (enzyme, UniProt A0A5B9BIX9 1-235, looked up)
chain: MNQFPGSGIYDRMHAVQDMSASQGRYTGPQAESRYIIPRFVERTSQGIREYDPYAKLFEERVIFLGVQIDDASANDVMAQLLCLESMDPDRDISVYINSPGGSFTALTAIYDTMQYVKPDVQTVCMGQAASAAAVLLAAGTPGKRMALPNARVLIHQPYSETGRGQVSDLEIAANEILRMRSQLEDMLAKHSTTPVEKIREDIERDKILTAEDALSYGLIDQVISTRKMDNSSLR
notes: ClpP2, Clp protease proteolytic subunit 2 of Streptomyces hawaiiensis NRRL 15010, orf CEB94_14105 of GenBank CP021978.1; from the first start codon, unprocessed; also called ClpP2-His6; ClpP2His; source: E. coli SG1146a (ΔclpP), purified (Ni-NTA); also co-expressed with ClpP1 from pETDUET-1, in lysate; not shown: His6, C-terminal, kept
In the case of B1, the “stoichiometry N” value in data set [1] came to 7.

B2: ClpP2 of Streptomyces hawaiiensis NRRL 15010, untagged (enzyme, UniProt A0A5B9BIX9 1-235, looked up)
chain: B1 chain
notes: ClpP2 of Streptomyces hawaiiensis NRRL 15010, orf CEB94_14105 of GenBank CP021978.1; unprocessed; calculated mass of the heptamer 182.2 kDa; also called native ClpP2; source: E. coli SG1146a (ΔclpP), purified (anion-exchange chromatography)
With B2, the “stoichiometry N” value in data set [2] came out at 7.

The values are drawn from publication PMC9765437, “Antibiotic Acyldepsipeptides Stimulate the Streptomyces Clp-ATPase/ClpP Complex for Accelerated Proteolysis” (mBio, 2022).
